PMC12686049 (2025)

Tests used:
[1] = tested on: A2-G (DNA, G4) GGGTGGGGGTGATAAACGGGGCATCAGGGACACATTGCTGGGTCGGGTCGT; assay: CD titration at 295 nm, Hill fit; conditions: 100 mM KCl; 10 mM sodium cacodylate, pH 7.0, 25 °C; 10 µM DNA; apparent, half-maximal ellipticity change; Hill coefficient 2.8 ± 1.5
[2] = tested on: A1-G (DNA, G4) CCGGGAGGAATCATGTAAGGGGTCCCGGGAACGGGCAAGGGGCTTTTCACC; assay: CD titration at 295 nm, Hill fit; conditions: 100 mM KCl; 10 mM sodium cacodylate, pH 7.0, 25 °C; 10 µM DNA; apparent, half-maximal ellipticity change; Hill coefficient 2.1 ± 0.9
[3] = tested on: mp1 (DNA, single strand) GGCTCCGGCTCCGGCTCCGG; assay: thioflavin T fluorescence; conditions: 100 mM KCl; 10 mM sodium cacodylate, pH 7.4; 4 µM DNA, 1 µM dye; background without DNA 1154
[4] = tested on: cyp51B (DNA, G4) GGGGTAGGGGGGCCCAGGG; assay: thioflavin T fluorescence; conditions: 100 mM KCl; 10 mM sodium cacodylate, pH 7.4; 4 µM DNA, 1 µM dye; background without DNA 1154
[5] = tested on: ftmE (DNA, G4) GGGAGTGGGGATGGCGACGGGGAGCAGGG; assay: thioflavin T fluorescence; conditions: 100 mM KCl; 10 mM sodium cacodylate, pH 7.4; 4 µM DNA, 1 µM dye; background without DNA 1154
[6] = tested on: aspf28 (DNA, G4) GGGTTGCGAGGGAAGGAGGGGCGGG; assay: thioflavin T fluorescence; conditions: 100 mM KCl; 10 mM sodium cacodylate, pH 7.4; 4 µM DNA, 1 µM dye; background without DNA 1154
[7] = tested on: pkaC1 (DNA, G4) GGGTTGTGGTGGGTGGAGGGATGGGG; assay: thioflavin T fluorescence; conditions: 100 mM KCl; 10 mM sodium cacodylate, pH 7.4; 4 µM DNA, 1 µM dye; background without DNA 1154
[8] = tested on: yap1 (DNA, G4) GGGATGGGCTTCCCAAGTCGGGGAGAGGG; assay: thioflavin T fluorescence; conditions: 100 mM KCl; 10 mM sodium cacodylate, pH 7.4; 4 µM DNA, 1 µM dye; background without DNA 1154
[9] = tested on: Telomere (DNA, G4) TTAGGGTTAGGGTTAGGGTTAGGGTT; assay: thioflavin T fluorescence; conditions: 100 mM KCl; 10 mM sodium cacodylate, pH 7.4; 4 µM DNA, 1 µM dye; background without DNA 1154
[10] = tested on: abcB (DNA, G4) GGGGGTGGGCGTTGGGGCGGG; assay: thioflavin T fluorescence; conditions: 100 mM KCl; 10 mM sodium cacodylate, pH 7.4; 4 µM DNA, 1 µM dye; background without DNA 1154
[11] = tested on: gliN (DNA, G4) GGGGGGCGCTTGGCTGGGAAGGCGGTTGGG; assay: thioflavin T fluorescence; conditions: 100 mM KCl; 10 mM sodium cacodylate, pH 7.4; 4 µM DNA, 1 µM dye; background without DNA 1154
[12] = tested on: ste7 (DNA, G4) GGGAGGGACACAAAGAGGGGATAAGGAGGG; assay: thioflavin T fluorescence; conditions: 100 mM KCl; 10 mM sodium cacodylate, pH 7.4; 4 µM DNA, 1 µM dye; background without DNA 1154
[13] = tested on: atrF (DNA, G4) GGGTATTTGTTTGGGGGGATGGG; assay: thioflavin T fluorescence; conditions: 100 mM KCl; 10 mM sodium cacodylate, pH 7.4; 4 µM DNA, 1 µM dye; background without DNA 1154
[14] = tested on: B DNA (DNA, single strand) GGCGCTATTCTCTGGTGCTGCT; assay: thioflavin T fluorescence; conditions: 100 mM KCl; 10 mM sodium cacodylate, pH 7.4; 4 µM DNA, 1 µM dye; background without DNA 1154
[15] = tested on: chsG (DNA, G4) GGAGAGCGGGAGGTGGTGAGGG; assay: thioflavin T fluorescence; conditions: 100 mM KCl; 10 mM sodium cacodylate, pH 7.4; 4 µM DNA, 1 µM dye; background without DNA 1154
[16] = tested on: aspf2 (DNA, G4) GGGGACGGGGGAGGTAGGGAGGG; assay: thioflavin T fluorescence; conditions: 100 mM KCl; 10 mM sodium cacodylate, pH 7.4; 4 µM DNA, 1 µM dye; background without DNA 1154
[17] = tested on: gstA (DNA, G4) GGGCTGGGTGGCGGCCGCTGGTTGGGCGGG; assay: thioflavin T fluorescence; conditions: 100 mM KCl; 10 mM sodium cacodylate, pH 7.4; 4 µM DNA, 1 µM dye; background without DNA 1154
[18] = tested on: pes1 (DNA, G4) GGGAGCAAGGGGAAATCGCTGAGGGTGGG; assay: thioflavin T fluorescence; conditions: 100 mM KCl; 10 mM sodium cacodylate, pH 7.4; 4 µM DNA, 1 µM dye; background without DNA 1154
[19] = tested on: hmg1 (DNA, G4) GGGCGGCAGGGACAGGGGCAACTTCGGG; assay: thioflavin T fluorescence; conditions: 100 mM KCl; 10 mM sodium cacodylate, pH 7.4; 4 µM DNA, 1 µM dye; background without DNA 1154
[20] = tested on: bck1 (DNA, G4) GGGCCTGGAGGGGGGCCCGGGG; assay: thioflavin T fluorescence; conditions: 100 mM KCl; 10 mM sodium cacodylate, pH 7.4; 4 µM DNA, 1 µM dye; background without DNA 1154
[21] = tested on: dppV (DNA, G4) GGGACGGCGTTGGGGGGGGGAAGGG; assay: thioflavin T fluorescence; conditions: 100 mM KCl; 10 mM sodium cacodylate, pH 7.4; 4 µM DNA, 1 µM dye; background without DNA 1154
[22] = tested on: zrfC (DNA, G4) GGGTTGGGCTGGTCGACATGTGGGCCCGGG; assay: thioflavin T fluorescence; conditions: 100 mM KCl; 10 mM sodium cacodylate, pH 7.4; 4 µM DNA, 1 µM dye; background without DNA 1154
[23] = tested on: atrR (DNA, G4) GGGGGAGGGTGCGGGATGCTCTTCGGG; assay: thioflavin T fluorescence; conditions: 100 mM KCl; 10 mM sodium cacodylate, pH 7.4; 4 µM DNA, 1 µM dye; background without DNA 1154
[24] = tested on: fks1 (DNA, G4) GGAAGGGGCTCGGGCATGGG; assay: thioflavin T fluorescence; conditions: 100 mM KCl; 10 mM sodium cacodylate, pH 7.4; 4 µM DNA, 1 µM dye; background without DNA 1154
[25] = tested on: erg5 (DNA, G4) GGGATTAGGGTATGCCTCAGGGTCATGGG; assay: thioflavin T fluorescence; conditions: 100 mM KCl; 10 mM sodium cacodylate, pH 7.4; 4 µM DNA, 1 µM dye; background without DNA 1154
[26] = tested on: rodA (DNA, G4) GGGGTAGGGAACAGGGTCCCGGG; assay: thioflavin T fluorescence; conditions: 100 mM KCl; 10 mM sodium cacodylate, pH 7.4; 4 µM DNA, 1 µM dye; background without DNA 1154
[27] = tested on: zafA (DNA, G4) GGGCAGGGCAGAGCAGGGCAGGGG; assay: thioflavin T fluorescence; conditions: 100 mM KCl; 10 mM sodium cacodylate, pH 7.4; 4 µM DNA, 1 µM dye; background without DNA 1154
[28] = tested on: ags1 (DNA, G4) GGGCTTGAGGGGAACTGGGAGGAGCGGG; assay: thioflavin T fluorescence; conditions: 100 mM KCl; 10 mM sodium cacodylate, pH 7.4; 4 µM DNA, 1 µM dye; background without DNA 1154
[29] = tested on: cyp51A (DNA, G4) GGGTGGGGGTGATAAACGGGGCATCAGGG; assay: thioflavin T fluorescence; conditions: 100 mM KCl; 10 mM sodium cacodylate, pH 7.4; 4 µM DNA, 1 µM dye; background without DNA 1154
[30] = tested on: arp2 (DNA, G4) GGGGAGGGGACCCTTGCATGGAGGGGGGG; assay: thioflavin T fluorescence; conditions: 100 mM KCl; 10 mM sodium cacodylate, pH 7.4; 4 µM DNA, 1 µM dye; background without DNA 1154
[31] = tested on: skn7 (DNA, single strand) GGGGGGGGGGTGGG; assay: thioflavin T fluorescence; conditions: 100 mM KCl; 10 mM sodium cacodylate, pH 7.4; 4 µM DNA, 1 µM dye; background without DNA 1154
[32] = tested on: hscA (DNA, G4) GGGGCTGAATTGGGGGGGAAAACGAGACGGG; assay: thioflavin T fluorescence; conditions: 100 mM KCl; 10 mM sodium cacodylate, pH 7.4; 4 µM DNA, 1 µM dye; background without DNA 1154
[33] = tested on: erg1 (DNA, G4) GGGCGACGGGGAAGAGGTAGGGAGGG; assay: thioflavin T fluorescence; conditions: 100 mM KCl; 10 mM sodium cacodylate, pH 7.4; 4 µM DNA, 1 µM dye; background without DNA 1154
[34] = tested on: lysF (DNA, G4) GGGACGCGGGGGGCGGCATCGGGAGCGGG; assay: thioflavin T fluorescence; conditions: 100 mM KCl; 10 mM sodium cacodylate, pH 7.4; 4 µM DNA, 1 µM dye; background without DNA 1154
[35] = tested on: laeA (DNA, G4) GGGATGTGGGACAGGGATTTGGG; assay: thioflavin T fluorescence; conditions: 100 mM KCl; 10 mM sodium cacodylate, pH 7.4; 4 µM DNA, 1 µM dye; background without DNA 1154
[36] = tested on: ftmC (DNA, G4) GGGTCTGGAGCGCGGGGTTCGGGGATCGGG; assay: thioflavin T fluorescence; conditions: 100 mM KCl; 10 mM sodium cacodylate, pH 7.4; 4 µM DNA, 1 µM dye; background without DNA 1154

C[n+]1cc(NC(=O)c2ccc3ccc4ccc(C(=O)Nc5cc6ccccc6[n+](C)c5)nc4c3n2)cc2ccccc21
K [1]: 32.5 ± 1.8 µM
K [2]: 32.7 ± 3.3 µM

Cc1ccc2c(c1)sc(-c1ccc(N(C)C)cc1)[n+]2C
Fluorescence [3]: 9852 ± 22 a.u.
Fluorescence [4]: 34,409 ± 10 a.u.
Fluorescence [5]: 105,384 ± 10 a.u.
Fluorescence [6]: 71,548 ± 13 a.u.
Fluorescence [7]: 62,347 ± 4 a.u.
Fluorescence [8]: 69,030 ± 18 a.u.
Fluorescence [9]: 100,859 ± 19 a.u.
Fluorescence [10]: 28,763 ± 5 a.u.
Fluorescence [11]: 134,267 ± 16 a.u.
Fluorescence [12]: 126,709 ± 54 a.u.
Fluorescence [13]: 64,599 ± 9 a.u.
Fluorescence [14]: 8808 ± 6 a.u.
Fluorescence [15]: 38,112 ± 15 a.u.
Fluorescence [16]: 87,449 ± 40 a.u.
Fluorescence [17]: 56,709 ± 4 a.u.
Fluorescence [18]: 129,161 ± 40 a.u.
Fluorescence [19]: 148,303 ± 33 a.u.
Fluorescence [20]: 73,174 ± 7 a.u.
Fluorescence [21]: 47,933 ± 12 a.u.
Fluorescence [22]: 81,452 ± 19 a.u.
Fluorescence [23]: 37,691 ± 7 a.u.
Fluorescence [24]: 72,302 ± 9 a.u.
Fluorescence [25]: 149,474 ± 14 a.u.
Fluorescence [26]: 50,100 ± 17 a.u.
Fluorescence [27]: 26,023 ± 6 a.u.
Fluorescence [28]: 67,230 ± 34 a.u.
Fluorescence [29]: 62,145 ± 13 a.u.
Fluorescence [30]: 82,140 ± 54 a.u.
Fluorescence [31]: 7173 ± 6 a.u.
Fluorescence [32]: 56,161 ± 21 a.u.
Fluorescence [33]: 71,126 ± 17 a.u.
Fluorescence [34]: 86,442 ± 9 a.u.
Fluorescence [35]: 50,899 ± 9 a.u.
Fluorescence [36]: 66,613 ± 9 a.u.
